Measured values published in patent publication US10617557B2, “Combined drug delivery methods and apparatus” (ForSight Vision4, Inc., priority 2010, dated 2020).
≈ marks a conversion by molar mass, not a printed value. Where two headings read alike, the source gives them in different places.

Legend:
[1] = tested on: COX; conditions: cited from earlier work
[2] = cited from earlier work
[3] = representative of a small molecule, input of the calculation; cited from earlier work
[4] = Calculated release of COX inhibitors from the therapeutic device into the vitreous; set-up: species or system human; conditions: from half-life 3 hr
[5] = vitreous, input of the calculation; cited from earlier work
[6] = tested on: VEGF-induced cell proliferation, or receptor binding; conditions: depending on the target assay; cited from earlier work
[7] = Diffusion coefficients of proteins and small molecules; type: physicochemical; conditions: simulation parameter, Tables 4A and 4E
Text: If the reservoir solution is aqueous or has a viscosity similar to water, the value for the diffusion coefficient of the therapeutic agent (TA) in water at the temperature of interest may be used.
Small molecules have a diffusion coefficient similar to fluorescein (MW=330, D=4.8 to 6 e-6 cm^2/s from Stay, M S et al. Pharm Res 2003, 20(1), pp. 96-102). For example, the small molecule may comprise a glucocorticoid such as triamcinolone acetonide having a molecular weight of about 435.

[8] = tested on: Grade IV choroidal neovascularization (CNV) lesions; conditions: intravitreal injection, all doses tested, cynomolgus monkeys; cited from earlier work
[9] = rabbit and monkey, cited from earlier work
[10] = human eye; listed as ranibizumab; cited from earlier work

## Nc1c(CC(=O)O)cccc1C(=O)c1ccc(Br)cc1 [bromfenac]
[1]
  IC50 (ug/ml) (Inhibitory Level)*: 0.0025 µg/mL (≈ 0.00748 µM)

## Cc1ccc(-c2cc(C(F)(F)F)nn2-c2ccc(S(N)(=O)=O)cc2)cc1 [celecoxib]
[2]
  Solubility in water: approximately 3 ug/ml

## O=C(c1ccccc1)c1ccc2n1CCC2C(=O)O (stereo not drawn) [ketorolac]
[3]
  Diffusion coeff: 5.0E−06 cm2/s
[4]
  Rate constant, k: 5.545 day⁻¹
[1]
  IC50 (ug/ml) (Inhibitory Level)*: 0.007 µg/mL (≈ 0.0274 µM)
[5]
  Half-life: 3 h

## C[C@]12C=CC(=O)C=C1CC[C@H]1[C@@H]3C[C@@H](O)[C@](O)(C(=O)CO)[C@@]3(C)C[C@H](O)[C@@]12F [triamcinolone]
[6]
  IC50: ~1.5 nM

## ranibizumab [Lucentis™]
[7]
  Diffusion coeff: 1.0E−06 cm2/s
[8]
  Development of Grade IV CNV lesions: completely inhibited
[9]
  Half-life in the vitreous: two to four
[9]; listed as ranibizumab
  Half-life in the vitreous: approximately 3 days
[10]
  Half-life in the vitreous: 9 days
